Inconclusive results are not listed.
System: cancer stem cell-like cells viability, luminescence
Experiment: PubChem AID 449748

`O=[N+]([O-])c1ccc(Cl)c([N+](=O)[O-])c1` gave an AC50 of 4.77 µM.

— PubChem BioAssay AID449748 (Broad Institute, 2010)
